# Data published in ChEMBL document CHEMBL1156642, “Discovery of betamethasone 17alpha-carbamates as dissociated glucocorticoid receptor modulators in the rat” (Bioorg Med Chem, 2008).
# The source made the active and inactive calls. The rule behind the calls is not given here.
# System: Rattus norvegicus
# Assay: Inhibition of granuloma formation in cotton pellet implanted Lewis rat at 5.0 mg/kg, po bid
# Type: functional
row,Structure (SMILES),inhibition in vivo at 5 mg/kg
1,CCCNC(=O)O[C@]1(C(=O)CO)[C@@H](C)C[C@H]2[C@@H]3CCC4=CC(=O)C=C[C@]4(C)[C@@]3(F)[C@@H](O)C[C@@]21C,32.7%

# System: Rattus norvegicus
# Assay: Effect on spleen weight in Lewis rat with implanted cotton pellets at 5.0 mg/kg, po bid
# Type: functional
row,Structure (SMILES),Activity
1,CCCNC(=O)O[C@]1(C(=O)CO)[C@@H](C)C[C@H]2[C@@H]3CCC4=CC(=O)C=C[C@]4(C)[C@@]3(F)[C@@H](O)C[C@@]21C,296.1 mg

# System: Rattus norvegicus
# Assay: Effect on body weight change in Lewis rat with implanted cotton pellets at 5.0 mg/kg, po bid for 7 days
# Type: functional
row,Structure (SMILES),Activity
1,CCCNC(=O)O[C@]1(C(=O)CO)[C@@H](C)C[C@H]2[C@@H]3CCC4=CC(=O)C=C[C@]4(C)[C@@]3(F)[C@@H](O)C[C@@]21C,5 g

# System: Rattus norvegicus
# Assay: Effect on body weight change in Lewis rat with implanted cotton pellets at 19 mg/kg, po bid for 4 days
# Type: functional
row,Structure (SMILES),Activity
1,CCCNC(=O)O[C@]1(C(=O)CO)[C@@H](C)C[C@H]2[C@@H]3CCC4=CC(=O)C=C[C@]4(C)[C@@]3(F)[C@@H](O)C[C@@]21C,3.9 g

# System: Rattus norvegicus
# Assay: Effect on adrenal weight in Lewis rat with implanted cotton pellets at 19 mg/kg, po bid
# Type: functional
row,Structure (SMILES),Activity
1,CCCNC(=O)O[C@]1(C(=O)CO)[C@@H](C)C[C@H]2[C@@H]3CCC4=CC(=O)C=C[C@]4(C)[C@@]3(F)[C@@H](O)C[C@@]21C,25.6 mg

# System: Rattus norvegicus
# Assay: Effect on body weight change in Lewis rat with implanted cotton pellets at 5.0 mg/kg, po bid for 4 days
# Type: functional
row,Structure (SMILES),Activity
1,CCCNC(=O)O[C@]1(C(=O)CO)[C@@H](C)C[C@H]2[C@@H]3CCC4=CC(=O)C=C[C@]4(C)[C@@]3(F)[C@@H](O)C[C@@]21C,1.1 g

# System: Rattus norvegicus
# Assay: Effect on thymus weight in Lewis rat with implanted cotton pellets at 10 mg/kg, po bid
# Type: functional
row,Structure (SMILES),Activity
1,CCCNC(=O)O[C@]1(C(=O)CO)[C@@H](C)C[C@H]2[C@@H]3CCC4=CC(=O)C=C[C@]4(C)[C@@]3(F)[C@@H](O)C[C@@]21C,91.4 mg

# System: Rattus norvegicus
# Assay: Effect on adrenal weight in Lewis rat with implanted cotton pellets at 5.0 mg/kg, po bid
# Type: functional
row,Structure (SMILES),Activity
1,CCCNC(=O)O[C@]1(C(=O)CO)[C@@H](C)C[C@H]2[C@@H]3CCC4=CC(=O)C=C[C@]4(C)[C@@]3(F)[C@@H](O)C[C@@]21C,34.7 mg

# System: Rattus norvegicus
# Assay: Effect on spleen weight in Lewis rat with implanted cotton pellets at 10 mg/kg, po bid
# Type: functional
row,Structure (SMILES),Activity
1,CCCNC(=O)O[C@]1(C(=O)CO)[C@@H](C)C[C@H]2[C@@H]3CCC4=CC(=O)C=C[C@]4(C)[C@@]3(F)[C@@H](O)C[C@@]21C,274.3 mg

# System: Rattus norvegicus
# Assay: Effect on plasma glucose level in Lewis rat with implanted cotton pellets at 19 mg/kg, po by oral glucose tolerance test
# Type: functional, organism-based
# Parameters: dose 19 mg/kg
row,Structure (SMILES),Activity
1,CCCNC(=O)O[C@]1(C(=O)CO)[C@@H](C)C[C@H]2[C@@H]3CCC4=CC(=O)C=C[C@]4(C)[C@@]3(F)[C@@H](O)C[C@@]21C,Active

# System: Rattus norvegicus
# Assay: Effect on plasma glucose level in Lewis rat with implanted cotton pellets at 10 mg/kg, po by oral glucose tolerance test
# Type: functional, organism-based
# Parameters: dose 10 mg/kg
row,Structure (SMILES),Activity
1,CCCNC(=O)O[C@]1(C(=O)CO)[C@@H](C)C[C@H]2[C@@H]3CCC4=CC(=O)C=C[C@]4(C)[C@@]3(F)[C@@H](O)C[C@@]21C,Active

# System: Rattus norvegicus
# Assay: Effect on adrenal weight in Lewis rat with implanted cotton pellets at 10 mg/kg, po bid
# Type: functional
row,Structure (SMILES),Activity
1,CCCNC(=O)O[C@]1(C(=O)CO)[C@@H](C)C[C@H]2[C@@H]3CCC4=CC(=O)C=C[C@]4(C)[C@@]3(F)[C@@H](O)C[C@@]21C,34.6 mg

# Biological target: T1, Glucocorticoid receptor (Homo sapiens, UniProt P04150)
# T1 sequence (P04150 whole entry): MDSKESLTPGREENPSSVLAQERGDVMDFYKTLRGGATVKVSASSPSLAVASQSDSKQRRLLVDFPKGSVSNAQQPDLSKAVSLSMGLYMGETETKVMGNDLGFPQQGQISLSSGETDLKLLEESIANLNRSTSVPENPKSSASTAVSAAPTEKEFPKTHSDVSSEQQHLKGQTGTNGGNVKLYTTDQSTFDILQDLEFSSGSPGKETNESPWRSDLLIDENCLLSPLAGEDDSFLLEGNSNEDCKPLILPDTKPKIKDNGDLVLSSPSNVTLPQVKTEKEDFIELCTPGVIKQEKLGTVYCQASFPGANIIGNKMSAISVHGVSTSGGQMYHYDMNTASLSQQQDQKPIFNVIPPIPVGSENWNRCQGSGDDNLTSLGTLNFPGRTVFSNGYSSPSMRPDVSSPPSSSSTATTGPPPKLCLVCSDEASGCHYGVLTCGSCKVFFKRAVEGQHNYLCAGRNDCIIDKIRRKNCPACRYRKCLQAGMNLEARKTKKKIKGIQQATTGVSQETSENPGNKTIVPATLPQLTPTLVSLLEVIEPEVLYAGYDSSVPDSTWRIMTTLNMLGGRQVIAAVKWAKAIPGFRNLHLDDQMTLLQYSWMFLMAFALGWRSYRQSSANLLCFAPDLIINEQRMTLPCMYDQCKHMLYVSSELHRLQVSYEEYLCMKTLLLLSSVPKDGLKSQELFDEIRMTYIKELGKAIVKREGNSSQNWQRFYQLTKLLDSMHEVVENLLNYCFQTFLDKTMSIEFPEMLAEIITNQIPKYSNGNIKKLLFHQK
# Description: Inhibition of human glucocorticoid receptor
row,Structure (SMILES),IC50
1,C[C@H]1C[C@H]2[C@@H]3CCC4=CC(=O)C=C[C@]4(C)[C@@]3(F)[C@@H](O)C[C@]2(C)[C@@]1(OC(=O)NC1CCCC1)C(=O)CO,3.8 nM
2,CCCNC(=O)O[C@]1(C(=O)CO)[C@@H](C)C[C@H]2[C@@H]3CCC4=CC(=O)C=C[C@]4(C)[C@@]3(F)[C@@H](O)C[C@@]21C,3.6 nM

# System: Rattus norvegicus
# Assay: Inhibition of granuloma formation in cotton pellet implanted Lewis rat at 10 mg/kg, po bid
# Type: functional
row,Structure (SMILES),inhibition in vivo at 10 mg/kg
1,CCCNC(=O)O[C@]1(C(=O)CO)[C@@H](C)C[C@H]2[C@@H]3CCC4=CC(=O)C=C[C@]4(C)[C@@]3(F)[C@@H](O)C[C@@]21C,40%

# Biological target: T2, Progesterone receptor (Homo sapiens, UniProt P06401)
# T2 sequence (P06401 whole entry): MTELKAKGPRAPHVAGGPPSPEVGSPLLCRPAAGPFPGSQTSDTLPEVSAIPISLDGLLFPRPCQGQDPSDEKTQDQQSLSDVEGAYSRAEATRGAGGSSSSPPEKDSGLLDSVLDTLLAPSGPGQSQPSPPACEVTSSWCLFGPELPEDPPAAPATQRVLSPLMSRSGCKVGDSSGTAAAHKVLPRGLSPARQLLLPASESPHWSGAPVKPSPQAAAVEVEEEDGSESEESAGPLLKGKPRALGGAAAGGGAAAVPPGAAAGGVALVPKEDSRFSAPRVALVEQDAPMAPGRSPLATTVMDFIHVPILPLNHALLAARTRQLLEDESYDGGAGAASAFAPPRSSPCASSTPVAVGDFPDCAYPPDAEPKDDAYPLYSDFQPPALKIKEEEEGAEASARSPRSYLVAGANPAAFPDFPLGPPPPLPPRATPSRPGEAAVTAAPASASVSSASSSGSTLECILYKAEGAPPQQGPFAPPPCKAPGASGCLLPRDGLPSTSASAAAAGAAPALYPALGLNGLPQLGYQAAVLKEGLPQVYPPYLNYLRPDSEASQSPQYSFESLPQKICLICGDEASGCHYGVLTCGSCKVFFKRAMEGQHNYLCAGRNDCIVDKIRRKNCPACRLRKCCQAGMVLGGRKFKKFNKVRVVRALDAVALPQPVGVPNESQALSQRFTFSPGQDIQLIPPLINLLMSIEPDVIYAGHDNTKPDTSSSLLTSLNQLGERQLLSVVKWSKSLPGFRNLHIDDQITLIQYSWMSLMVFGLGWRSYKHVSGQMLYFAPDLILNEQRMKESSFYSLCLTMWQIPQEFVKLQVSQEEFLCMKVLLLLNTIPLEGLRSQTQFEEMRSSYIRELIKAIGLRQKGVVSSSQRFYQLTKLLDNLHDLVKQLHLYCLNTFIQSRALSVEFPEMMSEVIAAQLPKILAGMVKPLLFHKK
# Assay: Inhibition of human progesterone receptor
row,Structure (SMILES),IC50
1,CCCNC(=O)O[C@]1(C(=O)CO)[C@@H](C)C[C@H]2[C@@H]3CCC4=CC(=O)C=C[C@]4(C)[C@@]3(F)[C@@H](O)C[C@@]21C,394 nM

# Biological target: T3, Interstitial collagenase (Homo sapiens) (UniProt P03956)
# T3 sequence (whole entry): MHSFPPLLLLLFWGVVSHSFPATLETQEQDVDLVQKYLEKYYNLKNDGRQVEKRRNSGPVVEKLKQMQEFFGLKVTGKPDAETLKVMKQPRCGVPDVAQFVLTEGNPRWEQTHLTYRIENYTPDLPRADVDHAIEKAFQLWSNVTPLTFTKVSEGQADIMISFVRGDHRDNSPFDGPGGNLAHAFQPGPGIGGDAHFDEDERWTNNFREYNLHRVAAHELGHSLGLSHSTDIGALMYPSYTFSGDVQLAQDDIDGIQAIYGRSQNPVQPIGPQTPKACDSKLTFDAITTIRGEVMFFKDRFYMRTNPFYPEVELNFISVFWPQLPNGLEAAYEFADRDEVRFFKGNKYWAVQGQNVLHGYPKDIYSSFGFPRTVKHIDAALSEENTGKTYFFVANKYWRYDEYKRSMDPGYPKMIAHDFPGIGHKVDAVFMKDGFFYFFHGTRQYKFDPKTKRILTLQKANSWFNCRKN
# Assay: Inhibition of glucocorticoid-mediated human MMP1 expression in PMA stimulated A549 cells assessed as MMP1 protein level by ELISA relative to Dexamethasone
# Type: cell-based
# Parameters: scale not given: the % may be the effect or the level left
row,Structure (SMILES),Activity
1,C[C@H]1C[C@H]2[C@@H]3CCC4=CC(=O)C=C[C@]4(C)[C@@]3(F)[C@@H](O)C[C@]2(C)[C@@]1(OC(=O)NC1CCCC1)C(=O)CO,76.1%
2,CCCNC(=O)O[C@]1(C(=O)CO)[C@@H](C)C[C@H]2[C@@H]3CCC4=CC(=O)C=C[C@]4(C)[C@@]3(F)[C@@H](O)C[C@@]21C,103%

# System: Rattus norvegicus
# Assay: Effect on thymus weight in Lewis rat with implanted cotton pellets at 19 mg/kg, po bid
# Type: functional
row,Structure (SMILES),Activity
1,CCCNC(=O)O[C@]1(C(=O)CO)[C@@H](C)C[C@H]2[C@@H]3CCC4=CC(=O)C=C[C@]4(C)[C@@]3(F)[C@@H](O)C[C@@]21C,82.9 mg

# System: Rattus norvegicus
# Assay: Effect on body weight change in Lewis rat with implanted cotton pellets at 19 mg/kg, po bid for 7 days
# Type: functional
row,Structure (SMILES),Activity
1,CCCNC(=O)O[C@]1(C(=O)CO)[C@@H](C)C[C@H]2[C@@H]3CCC4=CC(=O)C=C[C@]4(C)[C@@]3(F)[C@@H](O)C[C@@]21C,6.6 g

# System: Rattus norvegicus
# Assay: Effect on spleen weight in Lewis rat with implanted cotton pellets at 19 mg/kg, po bid
# Type: functional
row,Structure (SMILES),Activity
1,CCCNC(=O)O[C@]1(C(=O)CO)[C@@H](C)C[C@H]2[C@@H]3CCC4=CC(=O)C=C[C@]4(C)[C@@]3(F)[C@@H](O)C[C@@]21C,258 mg

# System: Rattus norvegicus
# Assay: Inhibition of granuloma formation in cotton pellet implanted Lewis rat at 19 mg/kg, po bid
# Type: functional
row,Structure (SMILES),inhibition in vivo at 19 mg/kg
1,CCCNC(=O)O[C@]1(C(=O)CO)[C@@H](C)C[C@H]2[C@@H]3CCC4=CC(=O)C=C[C@]4(C)[C@@]3(F)[C@@H](O)C[C@@]21C,51%

# System: Rattus norvegicus
# Assay: Effect on body weight change in Lewis rat with implanted cotton pellets at 10 mg/kg, po bid for 7 days
# Type: functional
row,Structure (SMILES),Activity
1,CCCNC(=O)O[C@]1(C(=O)CO)[C@@H](C)C[C@H]2[C@@H]3CCC4=CC(=O)C=C[C@]4(C)[C@@]3(F)[C@@H](O)C[C@@]21C,7.1 g

# System: Rattus norvegicus
# Assay: Effect on body weight change in Lewis rat with implanted cotton pellets at 10 mg/kg, po bid for 4 days
# Type: functional
row,Structure (SMILES),Activity
1,CCCNC(=O)O[C@]1(C(=O)CO)[C@@H](C)C[C@H]2[C@@H]3CCC4=CC(=O)C=C[C@]4(C)[C@@]3(F)[C@@H](O)C[C@@]21C,3.9 g

# Organism: Rattus norvegicus
# Assay: Transactivation activity of glutamine synthase in rat skeletal muscle cells relative to Dexamethasone
# Type: cell-based
row,Structure (SMILES),Activity
1,C[C@H]1C[C@H]2[C@@H]3CCC4=CC(=O)C=C[C@]4(C)[C@@]3(F)[C@@H](O)C[C@]2(C)[C@@]1(OC(=O)NC1CCCC1)C(=O)CO,23%
2,CCCNC(=O)O[C@]1(C(=O)CO)[C@@H](C)C[C@H]2[C@@H]3CCC4=CC(=O)C=C[C@]4(C)[C@@]3(F)[C@@H](O)C[C@@]21C,34.7%

# System: Rattus norvegicus
# Assay: Effect on thymus weight in Lewis rat with implanted cotton pellets at 5.0 mg/kg, po bid
# Type: functional
row,Structure (SMILES),Activity
1,CCCNC(=O)O[C@]1(C(=O)CO)[C@@H](C)C[C@H]2[C@@H]3CCC4=CC(=O)C=C[C@]4(C)[C@@]3(F)[C@@H](O)C[C@@]21C,105.5 mg
